In DBAASP:
Values after ≈ are worked out from the molar mass of the structure shown. One block for each compound: values may come before it.

Legend:
Experiment in all cases: ≥ marks a high value that may be exact or a test limit, other limits are often not marked, values filed in µg/mL are converted to µM
[1] = tested on: Micrococcus luteus ATCC 9341
[2] = tested on: Shigella flexneri ATCC 203
[3] = tested on: Staphylococcus epidermidis ATCC 12228
[4] = tested on: Bacillus subtilis ATCC 6633
[5] = tested on: Candida albicans ATCC 36232
[6] = tested on: Corynebacterium diphtheriae ATCC 8024
[7] = tested on: Staphylococcus aureus ATCC 6538
[8] = tested on: Pseudomonas aeruginosa ATCC 9027
Staphylococcus aureus = tested on: Staphylococcus aureus
[9] = tested on: Escherichia coli ATCC 2592
[10] = tested on: Staphylococcus aureus BCRC 10781
Vibrio alginolyticus = tested on: Vibrio alginolyticus
[11] = tested on: Escherichia coli BCRC 10675
[12] = tested on: Vibrio anguillarum serotype O1
[13] = tested on: Klebsiella oxytoca BCRC 13985
[14] = tested on: Enterobacter cloacae BCRC 10401
[15] = tested on: Listeria monocytogenes BCRC 14845
[16] = tested on: Staphylococcus xylosus BCRC 12930
[17] = tested on: Pseudomonas aeruginosa BCRC 10944
Vibrio parahaemolyticus = tested on: Vibrio parahaemolyticus
Vibrio harveyi = tested on: Vibrio harveyi
[18] = tested on: Yersinia enterocolitica BCRC 13999
[19] = tested on: Vibrio alginolyticus BCRC 12829
[20] = tested on: Streptococcus equinus BCRC 14729
[21] = tested on: Staphylococcus aureus BCRC 10780
[22] = tested on: Vibrio parahaemolyticus BCRC 10806
[23] = tested on: Klebsiella aerogenes BCRC 10370
Lactococcus garvieae = tested on: Lactococcus garvieae
Streptococcus iniae = tested on: Streptococcus iniae
[24] = tested on: Pseudomonas aeruginosa ATCC 27853
[25] = tested on: Staphylococcus epidermidis LT1324
[26] = tested on: Staphylococcus aureus II ATCC 6538P
[27] = tested on: Escherichia coli ATCC 25922
[28] = tested on: Acinetobacter baumannii ATCC 19606
Escherichia coli D21 = tested on: Escherichia coli D21
Micrococcus luteus = tested on: Micrococcus luteus
Staphylococcus simulans = tested on: Staphylococcus simulans
[29] = tested on: Staphylococcus aureus USA 300
Listeria ivanovii LMA 94 = tested on: Listeria ivanovii LMA 94
[30] = tested on: Klebsiella pneumoniae CIP 8291
Escherichia coli K-12 = tested on: Escherichia coli K-12
Escherichia coli L- = tested on: Escherichia coli L-
[31] = tested on: Staphylococcus aureus CIP 677
[32] = tested on: Lactococcus lactis subsp. cremoris I116
[33] = tested on: Trypanosoma brucei brucei GUT Tat3.1
[34] = tested on: Staphylococcus aureus KO-4
Pseudomonas aeruginosa = tested on: Pseudomonas aeruginosa
[35] = tested on: Trichophyton mentagrophytes IFO 5466

SMILES: CC(C)C[C@H](NC(=O)[C@@H]1CSSC[C@H](NC(=O)[C@H](C)NC(=O)[C@H](C)NC(=O)[C@@H](N)CC(=O)O)C(=O)N[C@@H](C)C(=O)N[C@@H](C)C(=O)N[C@@H](Cc2cnc[nH]2)C(=O)N1)C(=O)N[C@@H](Cc1ccccc1)C(=O)N[C@@H](CCCN=C(N)N)C(N)=O [DAACAAHCLFR]
MIC [1]: ≥ 84.9 µM
MIC [2]: ≥ 84.9 µM
MIC [3]: > 84.9 µM
MIC [4]: ≥ 84.9 µM
MIC [5]: ≥ 84.9 µM
MIC [6]: ≥ 84.9 µM
MIC [7]: > 84.9 µM
MIC [8]: > 84.9 µM
MIC (Staphylococcus aureus): > 84.9 µM
MIC [9]: ≥ 84.9 µM

SMILES: CC(C)C[C@H](NC(=O)[C@H](C)NC(=O)[C@H](CC(N)=O)NC(=O)[C@H](C)NC(=O)[C@H](Cc1ccccc1)NC(=O)[C@H](CCCCN)NC(=O)[C@H](CCCCN)NC(=O)[C@H](C)NC(=O)[C@H](CC(C)C)NC(=O)[C@H](CC(N)=O)NC(=O)[C@H](C)NC(=O)[C@H](CC(C)C)NC(=O)[C@H](CCCCN)NC(=O)[C@H](CCCCN)NC(=O)[C@H](C)NC(=O)[C@H](Cc1ccc(O)cc1)NC(=O)[C@H](CC(N)=O)NC(=O)[C@H](Cc1ccc(O)cc1)NC(=O)CN)C(=O)N[C@@H](Cc1c[nH]c2ccccc12)C(=O)O [GYNYAKKLANLAKKFANALW]
MIC [10]: 14 µM (≈ 32 µg/mL)
MIC (Vibrio alginolyticus): 1.75 µM (≈ 4 µg/mL)
MIC [11]: 3.5 µM (≈ 8 µg/mL)
MIC [12]: 1.75 µM (≈ 4 µg/mL)
MIC [13]: 7 µM (≈ 16 µg/mL)
MIC [14]: 3.5 µM (≈ 8 µg/mL)
MIC [15]: 7 µM (≈ 16 µg/mL)
MIC [16]: 3.5 µM (≈ 8 µg/mL)
MIC [17]: 14 µM (≈ 32 µg/mL)
MIC (Vibrio parahaemolyticus): 1.75 µM (≈ 4 µg/mL)
MIC (Vibrio harveyi): 3.5 µM (≈ 8 µg/mL)
MIC [18]: 14 µM (≈ 32 µg/mL)
MIC [19]: ≥ 56 µM
MIC [20]: ≥ 56 µM
MIC [21]: 7 µM (≈ 16 µg/mL)
MIC [22]: ≥ 56 µM
MIC [23]: 7 µM (≈ 16 µg/mL)
MIC (Lactococcus garvieae): 14 µM (≈ 32 µg/mL)
MIC (Streptococcus iniae): 28 µM (≈ 64 µg/mL)

SMILES: CC[C@H](C)[C@H](NC(=O)[C@H](CCCCN)NC(=O)CNC(=O)[C@H](CC(C)C)NC(=O)[C@@H](NC(=O)[C@H](C)NC(=O)[C@H](CCCCN)NC(=O)CNC(=O)[C@H](C)NC(=O)CNC(=O)[C@H](CCCCN)NC(=O)[C@@H](NC(=O)[C@H](CCCCN)NC(=O)[C@@H](NC(=O)[C@H](Cc1c[nH]c2ccccc12)NC(=O)[C@H](CC(C)C)NC(=O)[C@H](CCC(=O)O)NC(=O)[C@H](CCCCN)NC(=O)[C@H](CC(C)C)NC(=O)[C@@H](N)CC(C)C)[C@@H](C)O)[C@@H](C)CC)C(C)C)C(=O)N[C@@H](CCCCN)C(=O)NCC(=O)N[C@@H](CC(C)C)C(=O)N[C@@H](CC(C)C)C(=O)O [LLKELWTKIKGAGKAVLGKIKGLL]
MIC [29]: ≥ 85 µM
MIC (Listeria ivanovii LMA 94): 4 µM (≈ 10.3 µg/mL)
MIC [30]: ≥ 32 µM
MIC (Escherichia coli K-12): 25 µM (≈ 64.5 µg/mL)
MIC (Escherichia coli L-): ≥ 64 µM
MIC [31]: ≥ 32 µM
MIC [32]: 2 µM (≈ 5.16 µg/mL)

The remaining lines, values ahead:

MIC [24]: > 50 µM
MIC [25]: ≥ 32 µM
MIC [26]: ≥ 50 µM
MIC [27]: 50 µM (≈ 90.2 µg/mL)
MIC [28]: 50 µM (≈ 90.2 µg/mL)
MIC (Escherichia coli D21): ≥ 50 µM
MIC (Micrococcus luteus): 16 µM (≈ 28.9 µg/mL)
MIC (Staphylococcus simulans): ≥ 32 µM
SMILES: CC(C)C[C@H](NC(=O)[C@H](CC(C)C)NC(=O)[C@H](CC(C)C)NC(=O)[C@H](CC(C)C)NC(=O)[C@H](CC(C)C)NC(=O)[C@H](CC(C)C)NC(=O)[C@H](CC(C)C)NC(=O)[C@H](CC(C)C)NC(=O)[C@H](CC(C)C)NC(=O)[C@H](CCCCN)NC(=O)[C@H](CCCCN)NC(=O)[C@@H](N)CCCCN)C(=O)N[C@@H](CCCCN)C(=O)N[C@@H](CCCCN)C(=O)N[C@@H](CCCCN)C(N)=O [KKKLLLLLLLLLKKK]

MIC [33]: ≥ 325 µM
MIC [34]: ≥ 521 µM
MIC (Pseudomonas aeruginosa): 347 µM (≈ 400 µg/mL)
MIC [35]: 13 µM (≈ 15 µg/mL)
SMILES: CC[C@H](C)[C@H](NC(=O)[C@H](CCCN=C(N)N)NC(=O)[C@H](CC(C)C)NC(=O)[C@H](CC(C)C)NC(=O)[C@H](CC(C)C)NC(=O)[C@@H](N)CCCN=C(N)N)C(=O)NCC(=O)N[C@@H](CCCN=C(N)N)C(=O)N[C@@H](CCCN=C(N)N)C(N)=O [RLLLRIGRR]
